These results are taken from patent US20240315992A1, “AMINOXY ACID-BASED ANTIBACTERIAL COMPOUNDS AND METHODS THEREOF” (The University of Hong Kong, priority 2023, published 2024).

The test system of assay [1] is multidrug resistant Staphylococcus aureus Mu3. Nature of the assay: MIC by CLSI broth micro-dilution, MRSA Mu3. In kind it is cell-based. The settings on record: MRSA, CLSI broth micro-dilution, CAMH, read-out: Minimum inhibitory concentration (μM) in MRSA Mu3. The method, then:
Aminoxy acids were synthesized by the standard peptide coupling procedures. Minimum inhibitory concentration was determined using CLSI broth micro-dilution method in 96-wells microtitre plates. Minimum inhibitory concentration is defined as the lowest concentration of the compound that inhibits visible growth of the bacteria. All experiments were performed three times. 24 compounds including aminoxy acid monomers and dipeptides have been identified to show toxicity against multidrug resistant Staphylococcus aureus Mu3 and summarized in Table 1. The minimum inhibitory concentration of compound 8 and compound 35 on other gram-positive bacteria was also evaluated and summarized in Table 2. […] As shown in FIGS. 3A-3B there are no observable hemolysis for compound 8 and compound 35 towards human red blood cell.
Bacteria were streaked from the glycerol stock into BHI agar and were incubated overnight. Single colony was picked for the overnight culture in cation-adjusted Mueller Hinton broth (CAMH), LB or BHI. The overnight culture was sub-cultured and regrew to exponential phase for the experiment.
MIC was determined by CLSI broth micro-dilution method in 96-wells microtitre plates. For compounds dissolved in water, 100 μL of 2× testing concentration was added to the first well of each column, followed by two-fold serial dilution for successive wells with 50 μL medium. For chemical compounds dissolved in DMSO, the compounds were two-fold serial diluted by DMSO in a DMSO-compatible 96-well plate. 1 μL of compound in DMSO was transferred into 96-wells microtitre plate containing 50 μL medium to give 2× testing concentration. An overnight culture of bacteria was grown into exponential phase. The bacteria culture was diluted to 1×10^6 CFU/mL and 50 μL of diluted culture were added into each well. The test plates were kept in a 37° C. incubator overnight. Optical density was recorded by DTX 880 multimode detector (Beckman Coulter, California, US). MIC is defined as the lowest concentration of the compound that inhibits visible growth of bacteria. Biological replicates were performed. CAMH was used for bacteria culture and MIC test except S. pneumoniae, L. monocytogenes, E. faecalis and M. smegmatis for which BHI was used as culture medium

Assay [2] concerns Staphylococcus aureus strain USA300-LAC. In words: Non-lethal bacteremia model, bacteria loads in organs. In kind it is in vivo, Balb/c mice. The settings on record: 10 mg/kg/day intraperitoneal, 4 days. The procedure:
FIG. 9 are the bar graphs showing compound 8 and compound 35 reduce bacteria loads in different organs of the mice infected by Staphylococcus aureus. Grubb's test was performed to test for outliers. Statistical analysis was performed with two-sided paired t test. (*p<0.05).
Staphylococcus aureus strain USA300-LAC were cultured to the early exponential phase of growth, washed twice with sterile phosphate-buffered saline solution (PBS), and resuspended in PBS at 5×10^6 CFU/200 μL for non-lethal bacteremia model. The female Balb/c mice, 6-8 weeks, were infected intravenously (i.v.) through the tail vein with Staphylococcus aureus and randomized into three groups (N=14 for vehicle; N=12 for compound 8 and compound 35 respectively). One hour after infection, mice received intraperitoneal injections of compound 8 or compound 35 (10 mg/kg/day) or an injection of buffer (PBS with 2.5% DMSO and 2% Tween-80) as the control. The compound and injection buffer treatments were performed twice per day at 12-h intervals. The challenged mice were monitored for 4 days, at which point all the remaining mice were sacrificed. The CFU of S. aureus were determined in heart, liver, kidney and lung by plating in series dilution. Grubb's test was performed to test for outliers. Statistical analysis was performed with two-sided paired t test. (*p<0.05).

In brackets after ≈: the same amount, converted by molar mass.

On to `CC(C)C[C@H](ONC(=O)[C@@H](COCc1ccccc1)ONC(=O)c1cc(C(F)(F)F)cc(C(F)(F)F)c1)C(=O)Nc1ccc2cc[nH]c2c1` [Compound 23], for which the MIC in assay [1] is over 12.5 µM. Regarding `CC(C)CNC(=O)[C@H](CC(C)C)ONC(=O)[C@@H](COCc1ccccc1)ONC(=O)c1cc(C(F)(F)F)cc(C(F)(F)F)c1` [Compound 24], in assay [1], the MIC was over 12.5 µM. For the compound `CC(C)C[C@H](ONC(=O)[C@@H](COCc1ccccc1)ONC(=O)c1cc(C(F)(F)F)cc(C(F)(F)F)c1)C(=O)Nc1cccc2cc[nH]c12` [Compound 25], the MIC in assay [1] was 6.25 µM (≈ 4.34 µg/mL). As for `CC(C)C[C@H](ONC(=O)[C@@H](COCc1ccccc1)ONC(=O)c1cc(C(F)(F)F)cc(C(F)(F)F)c1)C(=O)NC12CC3CC(CC(C3)C1)C2` [Compound 26], in assay [1], the MIC is 6.25 µM (≈ 4.46 µg/mL). Turning to `CC(C)C[C@H](ONC(=O)[C@@H](COCc1ccccc1)ONC(=O)c1cc(C(F)(F)F)cc(C(F)(F)F)c1)C(=O)Nc1cncnc1` [Compound 27], the MIC in assay [1] is over 12.5 µM. In the case of `CC(C)C[C@H](ONC(=O)[C@@H](COCc1ccccc1)ONC(=O)c1cc(C(F)(F)F)cc(C(F)(F)F)c1)C(=O)NC1CC1` [Compound 28], the MIC in assay [1] is over 12.5 µM. Same read-out and setting: the result for `COc1ccc(NC(=O)[C@H](CC(C)C)ONC(=O)[C@@H](COCc2ccccc2)ONC(=O)c2cc(C(F)(F)F)cc(C(F)(F)F)c2)cc1` [Compound 29] reads 6.25 µM (≈ 4.29 µg/mL). Take `CC(C)C[C@H](ONC(=O)[C@@H](COCc1ccccc1)ONC(=O)c1cc(C(F)(F)F)cc(C(F)(F)F)c1)C(=O)NCc1ccccc1` [Compound 30]: in assay [1], the MIC was over 12.5 µM. Further, in assay [2], the “bacteria load in heart” value is given as “can reduce the bacteria load”, the “bacteria load in liver” value is “can reduce the bacteria load” and the “bacteria load in lung” value is on record as “can reduce the bacteria load”. Take `Cc1cc(C)cc(NC(=O)[C@H](CC(C)C)ONC(=O)[C@@H](COCc2ccccc2)ONC(=O)c2cc(C(F)(F)F)cc(C(F)(F)F)c2)c1` [Compound 31]: the MIC in assay [1] amounted to 3.13 µM (≈ 2.14 µg/mL). Still for that read-out and setting: then `CC(C)C[C@H](ONC(=O)[C@@H](COCc1ccccc1)ONC(=O)c1cc(C(F)(F)F)cc(C(F)(F)F)c1)C(=O)N1CCOCC1` [Compound 32], with over 12.5 µM; and `CC(C)C[C@H](ONC(=O)[C@@H](COCc1ccccc1)ONC(=O)c1cc(C(F)(F)F)cc(C(F)(F)F)c1)C(=O)Nc1ccc(N2CCOCC2)cc1` [Compound 33], with over 12.5 µM. As for `CC(C)C[C@H](ONC(=O)[C@@H](COCc1ccccc1)ONC(=O)c1cc(C(F)(F)F)cc(C(F)(F)F)c1)C(=O)Nc1ccc2c(c1)OCO2` [Compound 34], the MIC in assay [1] was determined as 6.25 µM (≈ 4.37 µg/mL). Regarding `CC(C)C[C@H](ONC(=O)[C@@H](COCc1ccccc1)ONC(=O)c1cc(C(F)(F)F)cc(C(F)(F)F)c1)C(=O)Nc1ccc(F)cc1` [Compound 36], the MIC in assay [1] came to 3.13 µM (≈ 2.11 µg/mL).

For `CC(C)C[C@H](ONC(=O)[C@@H](COCc1ccccc1)ONC(=O)c1cc(C(F)(F)F)cc(C(F)(F)F)c1)C(=O)Nc1ccc(C#N)cc1` [Compound 37], the MIC in assay [1] came out at 6.25 µM (≈ 4.25 µg/mL). On to `CC(C)C[C@H](ONC(=O)[C@@H](COCc1ccccc1)ONC(=O)c1cc(C(F)(F)F)cc(C(F)(F)F)c1)C(=O)Nc1ccc(C(F)(F)F)cc1` [Compound 38], for which the MIC in assay [1] was found to be 1.56 µM (≈ 1.13 µg/mL). Still for that read-out and setting: then `CC(C)C[C@H](ONC(=O)[C@@H](COCc1ccccc1)ONC(=O)c1cc(C(F)(F)F)cc(C(F)(F)F)c1)C(=O)Nc1ccc2ccccc2c1` [Compound 39], with 1.56 µM (≈ 1.1 µg/mL). Regarding `CC(C)C[C@H](ONC(=O)[C@@H](COCc1ccccc1)ONC(=O)c1cc(C(F)(F)F)cc(C(F)(F)F)c1)C(=O)NOCc1ccccc1` [Compound 40], in assay [1], the MIC is over 12.5 µM. With `CC(C)C[C@H](ONC(=O)[C@@H](COCc1ccccc1)ONC(=O)c1cc(C(F)(F)F)cc(C(F)(F)F)c1)C(=O)NOc1ccccc1` [Compound 41], the MIC in assay [1] is over 12.5 µM. Take `CC(C)C[C@H](ONC(=O)[C@@H](COCc1ccccc1)ONC(=O)C(C)(C)C)C(=O)Nc1ccc2c(c1)OC(F)(F)O2` [Compound 42]: the MIC in assay [1] is over 12.5 µM. For the compound `CC(C)C[C@H](ONC(=O)[C@@H](COCc1ccccc1)ONC(=O)C12CC3CC(CC(C3)C1)C2)C(=O)Nc1ccc2c(c1)OC(F)(F)O2` [Compound 43], in assay [1], the MIC was over 12.5 µM. As to `CC(C)C[C@H](ONC(=O)[C@@H](COCc1ccccc1)ONC(=O)c1ccccc1)C(=O)Nc1ccc2c(c1)OC(F)(F)O2` [Compound 44], the MIC in assay [1] is over 12.5 µM. `Cc1cc(C)cc(C(=O)NO[C@H](COCc2ccccc2)C(=O)NO[C@@H](CC(C)C)C(=O)Nc2ccc3c(c2)OC(F)(F)O3)c1` [Compound 45]: the MIC in assay [1] is over 12.5 µM. Still for that read-out and setting: the result for `CC(C)C[C@H](ONC(=O)[C@@H](COCc1ccccc1)ONC(=O)c1ccc2ccccc2c1)C(=O)Nc1ccc2c(c1)OC(F)(F)O2` [Compound 46] reads over 12.5 µM. With `CC(C)C[C@H](ONC(=O)[C@@H](COCc1ccccc1)ONC(=O)c1ccc(F)cc1)C(=O)Nc1ccc2c(c1)OC(F)(F)O2` [Compound 47], the MIC in assay [1] is over 12.5 µM.

For `CC(C)C[C@H](ONC(=O)[C@@H](COCc1ccccc1)ONC(=O)c1c(F)cccc1F)C(=O)Nc1ccc2c(c1)OC(F)(F)O2` [Compound 48], the MIC in assay [1] was over 12.5 µM. On to `CC(C)C[C@H](ONC(=O)[C@@H](COCc1ccccc1)ONC(=O)c1cccc2cccnc12)C(=O)Nc1ccc2c(c1)OC(F)(F)O2` [Compound 49], for which, in assay [1], the MIC is over 12.5 µM.

Turning to `Cc1noc(C)c1C(=O)NO[C@H](COCc1ccccc1)C(=O)NO[C@@H](CC(C)C)C(=O)Nc1ccc2c(c1)OC(F)(F)O2` [Compound 50], the MIC in assay [1] was over 12.5 µM. Same read-out and setting: then `CC(C)C[C@H](ONC(=O)[C@@H](COCc1ccccc1)ONC(=O)c1ccc[nH]1)C(=O)Nc1ccc2c(c1)OC(F)(F)O2` [Compound 51], with over 12.5 µM; and `CC(C)C[C@H](ONC(=O)[C@@H](COCc1ccccc1)ONC(=O)c1ccc2c(c1)OC(F)(F)O2)C(=O)Nc1ccc2c(c1)OC(F)(F)O2` [Compound 52], with 3.13 µM (≈ 2.13 µg/mL); and `Cc1ccc(S(=O)(=O)NO[C@H](COCc2ccccc2)C(=O)NO[C@@H](CC(C)C)C(=O)Nc2ccc3c(c2)OC(F)(F)O3)cc1` [Compound 53], with over 12.5 µM. `CC(C)C[C@H](ONC(=O)[C@@H](COCc1ccccc1)ONS(=O)(=O)c1ccc(C(F)(F)F)cc1)C(=O)Nc1ccc2c(c1)OC(F)(F)O2` [Compound 54]: in assay [1], the MIC was over 12.5 µM. For the compound `CC(C)C[C@H](ONC(=O)[C@@H](COCc1ccccc1)ONS(=O)(=O)c1cc(C(F)(F)F)cc(C(F)(F)F)c1)C(=O)Nc1ccc2c(c1)OC(F)(F)O2` [Compound 55], the MIC in assay [1] is over 12.5 µM. For the compound `CC(C)C[C@H](NC(=O)[C@@H](COCc1ccccc1)ONC(=O)c1cc(C(F)(F)F)cc(C(F)(F)F)c1)C(=O)Nc1ccccc1` [Compound 56], the MIC in assay [1] turned out to be 6.25 µM (≈ 4 µg/mL). As to `CC(C)C[C@H](ONC(=O)[C@@H](COCc1ccccc1)NC(=O)c1cc(C(F)(F)F)cc(C(F)(F)F)c1)C(=O)Nc1ccccc1` [Compound 57], in assay [1], the MIC is over 12.5 µM.
